According to PMC6299216, “Gain-of-Function Mutations in the Phospholipid Flippase MprF Confer Specific Daptomycin Resistance” (mBio, 2018):
In brackets after ≈: the same amount, converted by molar mass. Ends that are not written are not given here.

Key:
[1] = test system: S. aureus ΔmprF mutant with or without functional MprF; test: MIC, broth microdilution: mprF deletion mutant versus functional MprF; format: cell-based, Staphylococcus aureus; details: broth microdilution in Mueller-Hinton broth, 24-well plate, shaking; friulimicin B with 50 mg/liter CaCl2; three independent experiments (Fig. 4A)
Source text: (§1) The common laboratory strain, methicillin-susceptible S. aureus SA113 (ATCC 35556) and its mprF knockout derivative SA113ΔmprF have been described recently ([17]). Point mutations in mprF were introduced by site-directed mutagenesis in Escherichia coli using E. coli/S. aureus shuttle vector pRB474 bearing mprF via the use of a QuikChange kit (Stratagene, La Jolla, CA, USA) (see Table S3 in the supplemental material), as described recently ([20]). Mutated derivatives of mprF were cloned in pRB474mprF and transferred into strain SA113ΔmprF. Expression of the pRB474mprF variants was mediated by the use of constitutive Bacillus subtilis promoter vegII. Plasmids were maintained with 10 μg/ml chloramphenicol in all studies, with the exception of the MIC assays.
(§2) The MICs of daptomycin, bacitracin, polymyxin B, vancomycin, and oxacillin were determined with MIC test strips from Liofilchem according to the manufacturer’s advice. The MICs of friulimicin B, nisin, and gallidermin were determined by broth microdilution in Mueller-Hinton broth (MHB) in a 24-well plate under shaking conditions. Friulimicin B and daptomycin MICs were determined in the presence of 50 mg/liter CaCl2. Other MICs were determined in the presence of 50 mg/liter CaCl2 when indicated.

[2] = test system: S. aureus ΔmprF mutant expressing T345A-MprF; test: MIC, broth microdilution; format: cell-based, Staphylococcus aureus; details: T345A mutation; broth microdilution in MHB; 50 mg/liter CaCl2; three independent experiments (Fig. 4A)
Source text: as §1, §2

[3] = test system: S. aureus ΔmprF mutant expressing V351E-MprF; test: MIC, broth microdilution; format: cell-based, Staphylococcus aureus; details: V351E mutation; broth microdilution in MHB; 50 mg/liter CaCl2; three independent experiments (Fig. 4A)
Source text: as §1, §2

[4] = test system: S. aureus ΔmprF mutant with or without functional MprF; test: MIC, MIC test strips: mprF deletion mutant versus functional MprF; format: cell-based, Staphylococcus aureus; details: daptomycin with 50 mg/liter CaCl2, three independent experiments (Fig. 4A)
Source text: as §1, §2

[5] = test system: S. aureus ΔmprF mutant expressing R112A-T345A MprF (pRB-R112A-T345A); test: MIC, MIC test strips, flippase-inactivated MprF; format: cell-based, Staphylococcus aureus
Source text: as §1, §2

[6] = test system: S. aureus ΔmprF mutant expressing E206A-T345A MprF (pRB-E206A-T345A); test: MIC, MIC test strips, flippase-inactivated MprF; format: cell-based, Staphylococcus aureus
Source text: as §1, §2

[7] = test system: S. aureus ΔmprF mutant expressing D71A-T345A MprF (pRB-D71A-T345A); test: MIC, MIC test strips, flippase-inactivated MprF; format: cell-based, Staphylococcus aureus
Source text: as §1, §2

[8] = test system: S. aureus 113 (SA113) mprF mutant expressing parental (wild-type) MprF (pRBmprF); format: cell-based, Staphylococcus aureus; details: parental MprF sequence on plasmid in SA113 mprF mutant; MIC test strips; 50 mg/liter CaCl2; mean of at least five independent experiments (Fig. 1B)
Source text: as §1, §2

[9] = test system: S. aureus 113 (SA113) mprF mutant expressing T345A-MprF (pRB-T345A); format: cell-based, Staphylococcus aureus; details: T345A mutation in MprF on plasmid in SA113 mprF mutant; MIC test strips; 50 mg/liter CaCl2; mean of at least five independent experiments (Fig. 1B)
Source text: as §1, §2

[10] = test system: S. aureus 113 (SA113) mprF mutant expressing V351E-MprF (pRB-V351E); format: cell-based, Staphylococcus aureus; details: V351E mutation in MprF on plasmid in SA113 mprF mutant; MIC test strips; 50 mg/liter CaCl2; mean of at least five independent experiments (Fig. 1B)
Source text: as §1, §2

[11] = test system: S. aureus 113 (SA113) mprF mutant expressing MprF with S295L, P314L, S337L, I420N or L826F; test: MIC, MIC test strips (Liofilchem); format: cell-based, Staphylococcus aureus; details: mutations S295L, I420N and L826F, 50 mg/liter CaCl2 (Fig. 1B)
Source text: as §1, §2

[12] = test system: S. aureus with chromosomal deletion of MprF; details: cited from earlier work
Source text: Daptomycin is the first approved drug of a new class of calcium-dependent lipopeptide antibiotics, whose entire mode of action is still not fully understood ([6], [8]). It interacts with phosphatidylglycerol (PG) and interferes with bacterial fluid membrane microdomains, which leads to inhibition of cell wall synthesis ([9]). However, it is unclear if its activity requires a specific docking molecule in the membrane ([9], [10]). How point mutations in different S. aureus proteins contribute to or cause DAP-R remains equally elusive ([6]). Several proteins involved in the synthesis, regulation, ...

friulimicin B
ability to inhibit S. aureus growth (MIC) with functional MprF versus mprF deletion mutant [1]: reduced in the presence of a functional MprF protein
cross-resistance (MIC versus wild-type MprF) [2]: cross-resistance
cross-resistance (MIC versus wild-type MprF) [3]: cross-resistance

CCCCCCCCCC(=O)N[C@@H](Cc1c[nH]c2ccccc12)C(=O)N[C@H](CC(N)=O)C(=O)N[C@@H](CC(=O)O)C(=O)N[C@@H]1C(=O)NCC(=O)N[C@@H](CCCN)C(=O)N[C@@H](CC(=O)O)C(=O)N[C@H](C)C(=O)N[C@@H](CC(=O)O)C(=O)NCC(=O)N[C@H](CO)C(=O)N[C@@H]([C@H](C)CC(=O)O)C(=O)N[C@@H](CC(=O)c2ccccc2N)C(=O)O[C@@H]1C [daptomycin]
ability to inhibit S. aureus growth (MIC) with functional MprF versus mprF deletion mutant [4]: reduced in the presence of a functional MprF protein
ability of T345A to increase the MIC of daptomycin ([5]; T345A in combination with R112A, 50 mg/liter CaCl2, three independent experiments (Fig. 5B)): only slightly increased MIC
ability of T345A to increase the MIC of daptomycin ([6]; T345A in combination with R206A (so in the source), 50 mg/liter CaCl2, three independent experiments (Fig. 5B)): not able to increase the daptomycin MIC
ability of T345A to increase the MIC of daptomycin ([7]; T345A in combination with D71A, 50 mg/liter CaCl2, three independent experiments (Fig. 5B)): not able to increase the daptomycin MIC
MIC [8]: 1 µg/mL (≈ 0.617 µM)
MIC [9]: 3 µg/mL (≈ 1.85 µM)
MIC [10]: 3 µg/mL (≈ 1.85 µM)
daptomycin susceptibility compared to the parental MprF sequence [11]: did not alter daptomycin susceptibility
susceptibility after chromosomal deletion of MprF [12]: hypersusceptibility

nisin (ITSISLCTPGCKTGALMGCNMKTATCHCSIHVSK; also: lantibiotic: thioether rings and dehydro residues, places not given here; UniProt P13068 24-57, looked up)
ability to inhibit S. aureus growth (MIC) with functional MprF versus mprF deletion mutant [1]: reduced in the presence of a functional MprF protein

Cc1onc(-c2ccccc2)c1C(=O)N[C@@H]1C(=O)N2[C@@H]1SC(C)(C)[C@@H]2C(=O)O [oxacillin]
ability to inhibit S. aureus growth (MIC) with functional MprF versus mprF deletion mutant [4]: not affected by MprF

bacitracin
ability to inhibit S. aureus growth (MIC) with functional MprF versus mprF deletion mutant [4]: reduced in the presence of a functional MprF protein
MIC of bacitracin as indicator of flippase activity, compared to strains expressing a functional MprF ([5]; T345A with flippase-inactivating mutation R112A, three independent experiments (Fig. 5A)): hypersusceptible
MIC of bacitracin as indicator of flippase activity, compared to strains expressing a functional MprF ([6]; T345A with flippase-inactivating mutation E206A, three independent experiments (Fig. 5A)): hypersusceptible
MIC of bacitracin as indicator of flippase activity, compared to strains expressing a functional MprF ([7]; T345A with flippase-inactivating mutation D71A, three independent experiments (Fig. 5A)): hypersusceptible

polymyxin B
ability to inhibit S. aureus growth (MIC) with functional MprF versus mprF deletion mutant [4]: reduced in the presence of a functional MprF protein

vancomycin
ability to inhibit S. aureus growth (MIC) with functional MprF versus mprF deletion mutant [4]: reduced in the presence of a functional MprF protein

gallidermin (IASKFLCTPGCAKTGSFNSYCC; also: lantibiotic: thioether rings and dehydro residues, places not given here; UniProt P21838 31-52, looked up)
ability to inhibit S. aureus growth (MIC) with functional MprF versus mprF deletion mutant [1]: reduced in the presence of a functional MprF protein
